Measured values: patent publication US20230012936A1, “COMBINATION THERAPY USING GLUCAGON AND GLP-1 CO-AGONISTS FOR THE TREATMENT OF OBESITY” (MEDIMMUNE, LLC, priority 2019, published 2023)
Like-named read-outs stand apart in the source and are kept apart here.

Assays:
[1] = tested on: overweight/obese subjects with Type 2 Diabetes Mellitus (T2DM); experiment: Mixed-meal tolerance test (MMTT) plasma glucose AUC0-4 h, Phase 2a study; assay type: in vivo, human
Method: Subjects were admitted to the unit on Day −2 and on Day 27. On Day −1 and on Day 28, following a minimum 10 hour fast, a blood sample for glucose metabolism panel (glucose, insulin, C-peptide, glucagon, and active GLP-1) was taken immediately prior to the subject drinking a standardized mixed meal (t=“0 minutes”). The subject then consumed a can of Ensure Plus, which is a nutritional supplement containing the components of fat, carbohydrate, and protein that make up a standard mixed-meal tolerance test (MMTT). After the meal, timed, serial blood samples were obtained for measurement of glucose and parameters related to glucose metabolism (with no additional food intake during this time). The MMTT was performed on Day-1 and Day 28.
Blood samples for the glucose metabolism panel were drawn at t=“0 minutes” (before meal) and at 15, 30, 45, 60, 90, 120, 180, and 240 minutes (±5 minutes) after consumption of the standardized meal. Additional sampling for glucagon, insulin, C-peptide, and glucose was taken at 6, 8, 12, and 24 hours (±30 minutes) post-administration (t=“0 minutes”) of the standardized meal on Day −1 and 28.
The change and percent change from baseline (Day-1) to the end of the 28 days of treatment (Day 28) in glucose AUC0-4 h were determined as measured by the MMTT. In addition, the change from baseline (Day −1) to Day 28 in active GLP-1, glucagon, insulin, and C-peptide AUC0-4 h were also measured by MMTT.

[2] = tested on: overweight/obese subjects with Type 2 Diabetes Mellitus (T2DM); assay type: in vivo, human; conditions: for Change from baseline in percentage of CGM glucose readings within the hyperglycemic range, mean: glucose >180 mg/dL; for Change from baseline in percentage of CGM glucose readings within the euglycemic range, mean: glucose ≥70 and ≤180 mg/dL; for 7-Day CGM mean glucose, mean / 7-Day CGM mean glucose, median: post-hoc
Description: A continuous glucose monitoring (CGM) device was used to measure interstitial glucose levels during the study. Subjects wore the CGM sensor continuously up until the time of a sensor change (every 7 to 14 days). If a subject was unable to tolerate wearing the CGM sensor for the entire duration of the study, the sensor was to be removed; but the subject should have remained in the study with or without continued CGM.
Subjects underwent continuous glucose monitoring (CGM) for a total of 28 days with sensor changes every 7 to 14 days. The changes in CGM glucose AUC0-24 h and mean glucose over 24 hours from baseline to the end of each dosing level on Days 7 (100 μg), 14 (200 μg), and 28 (300 μg) were measured. Variability in glucose levels was also assessed by measuring the changes in standard deviation (SD), coefficient of variation (CV), and mean amplitude of glucose excursion (MAGE) of CGM glucose values over 24 hours.
Changes from baseline in the percentages of 24-hour CGM glucose readings that fell within the euglycemic, hyperglycemic, hypoglycemic, and clinically significant hypoglycemic ranges were assessed at the end of each dosing level.
In addition, a post-hoc analysis of CGM mean glucose over 7 days was conducted to further evaluate the effect of cotadutide on glucose control at each dose level.

[3] = Day 28, ITT, metformin and dapagliflozin background
[4] = baseline to Day 28, vs placebo, ANCOVA

Question: Which “Plasma glucose AUC0-4 h after MMTT, Day 28, mean” value [1, 3] does the source give for `CCCCCCCCCCCCCCCC(=O)N[C@@H](CCC(=O)NCCCC[C@H](NC(=O)[C@H](CC(=O)O)NC(=O)[C@H](CO)NC(=O)[C@@H](NC(=O)[C@H](Cc1ccccc1)NC(=O)[C@@H](NC(=O)CNC(=O)[C@H](CCC(N)=O)NC(=O)[C@H](CO)NC(=O)[C@@H](N)Cc1c[nH]cn1)[C@@H](C)O)[C@@H](C)O)C(=O)N[C@@H](CO)C(=O)N[C@@H](CCC(=O)O)C(=O)N[C@@H](Cc1ccc(O)cc1)C(=O)N[C@@H](CC(C)C)C(=O)N[C@@H](CC(=O)O)C(=O)N[C@@H](CO)C(=O)N[C@@H](CCC(=O)O)C(=O)N[C@@H](CCCNC(=N)N)C(=O)N[C@@H](C)C(=O)N[C@@H](CCCNC(=N)N)C(=O)N[C@@H](CC(=O)O)C(=O)N[C@@H](Cc1ccccc1)C(=O)N[C@H](C(=O)N[C@@H](C)C(=O)N[C@@H](Cc1c[nH]c2ccccc12)C(=O)N[C@@H](CC(C)C)C(=O)N[C@@H](CCC(=O)O)C(=O)N[C@@H](C)C(=O)NCC(=O)NCC(=O)O)C(C)C)C(=O)O` [Cotadutide] here?
Answer: 523.72 mg·h/dL

Question: What about the “Plasma glucose AUC0-4 h after MMTT, Day 28, median” value [1, 3] of the same compound?
Answer: 481.57 mg·h/dL

Question: What about the “Plasma glucose AUC0-4 h after MMTT, change from baseline, LS mean” value ([1]; baseline to Day 28, ANCOVA) of the same compound?
Answer: -154.37 mg·h/dL

Question: What about the “Plasma glucose AUC0-4 h after MMTT, percent change from baseline, LS mean” value ([1]; baseline to Day 28, ANCOVA) of the same compound?
Answer: −22.30%

Question: And the “Plasma glucose AUC0-4 h after MMTT, change from baseline, mean” value ([1]; baseline to Day 28, ITT)?
Answer: -151.29 mg·h/dL

Question: What about the “Plasma glucose AUC0-4 h after MMTT, change from baseline, median” value ([1]; baseline to Day 28, ITT) of the same compound?
Answer: -148.29 mg·h/dL

Question: What about the “Plasma glucose AUC0-4 h after MMTT, percent change from baseline, mean” value ([1]; baseline to Day 28, ITT) of the same compound?
Answer: −22.03%

Question: And the “Plasma glucose AUC0-4 h after MMTT, percent change from baseline, median” value ([1]; baseline to Day 28, ITT)?
Answer: −25.55%

Question: And the “Plasma glucose AUC0-4 h after MMTT, change from baseline, LS mean difference” value [1, 4]?
Answer: -143.09 mg·h/dL

Question: What about the “Plasma glucose AUC0-4 h after MMTT, percent change from baseline, LS mean difference” value [1, 4] of the same compound?
Answer: −22.17%

Question: And the “Change from baseline in CGM mean glucose over 24 hours, mean” value ([2]; Day 7 (100 μg))?
Answer: -34.74 mg/dL

Question: And the “Change from baseline in MAGE of CGM glucose, mean” value ([2]; Day 7 (100 μg))?
Answer: -25.74 mg/dL

Question: What about the “Change in CGM glucose AUC0-24 h from baseline, mean” value ([2]; Day 7 (100 μg)) of the same compound?
Answer: -832.66 mg·h/dL

Question: What about the “Change in CGM glucose AUC0-24 h from baseline, median” value ([2]; Day 7 (100 μg)) of the same compound?
Answer: -962.95 mg·h/dL

Question: What about the “Change in SD over 24 hours in CGM glucose from baseline, mean” value (“Change in SD … from baseline, mean” for short) ([2]; Day 7 (100 μg)) of the same compound?
Answer: -7.21 mg/dL

Question: And the “Change in SD over 24 hours in CGM glucose from baseline, median” value (“Change in SD over 24 hours … median” for short) ([2]; Day 7 (100 μg))?
Answer: -11.16 mg/dL

Question: What about the “Change from baseline in percentage of CGM glucose readings within the hyperglycemic range, mean” value ([2]; Day 7) of the same compound?
Answer: −13.99%

Question: What about the “Change from baseline in percentage of CGM glucose readings within the euglycemic range, mean” value ([2]; Day 7) of the same compound?
Answer: 7.12%

Question: And the “Change from baseline in CGM mean glucose over 24 hours, mean” value ([2]; Day 14 (200 μg))?
Answer: -28.34 mg/dL

Question: What about the “Change from baseline in MAGE of CGM glucose, mean” value ([2]; Day 14 (200 μg)) of the same compound?
Answer: -26.59 mg/dL

Question: And the “Change in CGM glucose AUC0-24 h from baseline, mean” value ([2]; Day 14 (200 μg))?
Answer: -666.05 mg·h/dL

Question: And the “Change in CGM glucose AUC0-24 h from baseline, median” value ([2]; Day 14 (200 μg))?
Answer: -897.02 mg·h/dL

Question: What about the “Change in SD … from baseline, mean” value ([2]; Day 14 (200 μg)) of the same compound?
Answer: -7.52 mg/dL

Question: And the “Change in SD over 24 hours … median” value ([2]; Day 14 (200 μg))?
Answer: -8.36 mg/dL

Question: What about the “Change from baseline in percentage of CGM glucose readings within the hyperglycemic range, mean” value ([2]; Day 14) of the same compound?
Answer: −9.81%

Question: And the “Change from baseline in percentage of CGM glucose readings within the euglycemic range, mean” value ([2]; Day 14)?
Answer: 5.31%

Question: What about the “Change in CGM glucose AUC0-24 h from baseline, mean” value ([2]; Day 28 (LOCF) (300 μg)) of the same compound?
Answer: -695.16 mg·h/dL

Question: What about the “Change in CGM glucose AUC0-24 h from baseline, median” value ([2]; Day 28 (LOCF) (300 μg)) of the same compound?
Answer: -928.48 mg·h/dL

Question: What about the “Change in SD … from baseline, mean” value ([2]; Day 28 (LOCF) (300 μg)) of the same compound?
Answer: -8.89 mg/dL

Question: And the “Change in SD over 24 hours … median” value ([2]; Day 28 (LOCF) (300 μg))?
Answer: -9.57 mg/dL

Question: What about the “Change in CGM glucose AUC0-24 h from baseline, LS mean” value ([2]; Day 28 (LOCF), ANCOVA) of the same compound?
Answer: -658.64 mg·h/dL

Question: And the “Change in SD over 24 hours in CGM glucose from baseline, LS mean” value ([2]; Day 28 (LOCF), ANCOVA)?
Answer: -9.73 mg/dL

Question: What about the “Change in SD over 24 hours in CGM glucose from baseline, LS mean difference” value ([2]; Day 28 (LOCF), vs placebo) of the same compound?
Answer: -8.45 mg/dL

Question: What about the “Change in CGM glucose AUC0-24 h from baseline, LS mean difference” value ([2]; Day 28 (LOCF), vs placebo, ANCOVA) of the same compound?
Answer: -806.61 mg·h/dL

Question: And the “CV of CGM glucose over 24 hours, change from baseline, LS mean difference” value ([2]; Day 28, vs placebo)?
Answer: −2.41%

Question: What about the “Change from baseline in CGM mean glucose over 24 hours, LS mean difference” value ([2]; Day 28, vs placebo) of the same compound?
Answer: -34.06 mg/dL

Question: And the “Change from baseline in MAGE of CGM glucose, LS mean difference” value ([2]; Day 28, vs placebo)?
Answer: -24.83 mg/dL

Question: And the “Change from baseline in percentage of CGM glucose readings within the euglycemic range, LS mean difference” value ([2]; Day 28, vs placebo)?
Answer: 8.78%

Question: And the “Change from baseline in percentage of CGM glucose readings within the hyperglycemic range, LS mean difference” value ([2]; Day 28, vs placebo)?
Answer: −12.83%

Question: What about the “7-Day CGM mean glucose, mean” value ([2]; Days 1 to 7 (100 μg dose)) of the same compound?
Answer: 116.82 mg/dL

Question: What about the “7-Day CGM mean glucose, median” value ([2]; Days 1 to 7 (100 μg dose)) of the same compound?
Answer: 111.40 mg/dL

Question: What about the “7-Day CGM mean glucose, mean” value ([2]; Days 8 to 14 (200 μg dose)) of the same compound?
Answer: 118.78 mg/dL

Question: What about the “7-Day CGM mean glucose, median” value ([2]; Days 8 to 14 (200 μg dose)) of the same compound?
Answer: 113.48 mg/dL

Question: What about the “7-Day CGM mean glucose, mean” value ([2]; Days 15 to 21 (300 μg dose)) of the same compound?
Answer: 120.94 mg/dL

Question: What about the “7-Day CGM mean glucose, median” value ([2]; Days 15 to 21 (300 μg dose)) of the same compound?
Answer: 106.17 mg/dL

Question: What about the “7-Day CGM mean glucose, mean” value ([2]; Days 22 to 28 (300 μg dose)) of the same compound?
Answer: 115.61 mg/dL

Question: And the “7-Day CGM mean glucose, median” value ([2]; Days 22 to 28 (300 μg dose))?
Answer: 108.78 mg/dL

Question: And the “Change from baseline in percentage of CGM glucose readings within the hypoglycemic range, LS mean difference” value ([2]; in vivo)?
Answer: 3.35%
